Assay results published in patent US9096560B2, “5-heterocyclylalkyl-3-hydroxy-2-phenylcyclopent-2-enones as herbicides” (Syngenta Limited, priority 2008, dated 2015).

Assays:
Assay type in all cases: in vivo
[1] = test system: Echinochloa crus-galli (ECHCG); test: Example B post-emergence herbicidal test, ECHCG; settings: Echinochloa crus-galli, 312 h, rate 250 g/ha, evaluated after 13 days, scale 0-100, read-out: Post-emergence activity ECHCG (100=total damage to plant; 0=no damage to plant)
Experimental: (§1) Seeds of a variety of test species were sown in standard soil in pots. After cultivation for one day (pre-emergence) or after 8 days cultivation (post-emergence) under controlled conditions in a glasshouse (at 24/16° C., day/night; 14 hours light; 65% humidity), the plants were sprayed with an aqueous spray solution derived from the formulation of the technical active ingredient in acetone/water (50:50) solution containing 0.5% Tween 20 (polyoxyethelyene sorbitan monolaurate, CAS RN 9005-64-5). The test plants were then grown in a glasshouse under controlled conditions in a glasshouse (at 24/16° C., day/night; 14 hours light; 65% humidity) and watered twice daily. After 13 days for pre and post-emergence, the test was evaluated (100=total damage to plant; 0=no damage to plant). Lolium perenne (LOLPE), Alopecurus myosuroides (ALOMY), Echinochloa crus-galli (ECHCG), Avena fatua (AVEFA) Post-Emergence Activity

Lolium perenne (LOLPE) [2] = test: Example B post-emergence herbicidal test, LOLPE; settings: Lolium perenne, 312 h, rate 250 g/ha, evaluated after 13 days, scale 0-100, read-out: Post-emergence activity LOLPE (100=total damage to plant; 0=no damage to plant)
Experimental: as §1

Lolium perenne (LOLPE) [3] = test: Example B pre-emergence herbicidal test, LOLPE; settings: Lolium perenne, 312 h, rate 250 g/ha, evaluated after 13 days, 100=total damage to plant, 0=no damage to plant
Experimental: as §1, with “Pre-Emergence” for “Post-Emergence”

Avena fatua (AVEFA) [4] = test: Example B post-emergence herbicidal test, AVEFA; settings: Avena fatua, 312 h, rate 250 g/ha, evaluated after 13 days, scale 0-100, read-out: Post-emergence activity AVEFA (100=total damage to plant; 0=no damage to plant)
Experimental: as §1

Avena fatua (AVEFA) [5] = test: Example B pre-emergence herbicidal test, AVEFA; settings: Avena fatua, 312 h, rate 250 g/ha, evaluated after 13 days, 100=total damage to plant, 0=no damage to plant
Experimental: as §1, with “Pre-Emergence” for “Post-Emergence”

[6] = test system: Alopecurus myosuroides (ALOMY); test: Example B post-emergence herbicidal test, ALOMY; settings: Alopecurus myosuroides, 312 h, rate 250 g/ha, evaluated after 13 days, scale 0-100, read-out: Post-emergence activity ALOMY (100=total damage to plant; 0=no damage to plant)
Experimental: as §1

[7] = test system: Echinochloa crus-galli (ECHCG); test: Example B pre-emergence herbicidal test, ECHCG; settings: Echinochloa crus-galli, 312 h, rate 250 g/ha, evaluated after 13 days, 100=total damage to plant, 0=no damage to plant
Experimental: as §1, with “Pre-Emergence” for “Post-Emergence”

[8] = test system: Alopecurus myosuroides (ALOMY); test: Example B pre-emergence herbicidal test, ALOMY; settings: Alopecurus myosuroides, 312 h, rate 250 g/ha, evaluated after 13 days, 100=total damage to plant, 0=no damage to plant
Experimental: as §1, with “Pre-Emergence” for “Post-Emergence”

Row | Structure (SMILES) | pest or weed control at 250 g/ha [1] | pest or weed control at 250 g/ha (Lolium perenne (LOLPE) [2]) | pest or weed control at 250 g/ha (Lolium perenne (LOLPE) [3]) | pest or weed control at 250 g/ha (Avena fatua (AVEFA) [4]) | pest or weed control at 250 g/ha (Avena fatua (AVEFA) [5]) | pest or weed control at 250 g/ha [6] | pest or weed control at 250 g/ha [7] | pest or weed control at 250 g/ha [8]
1 | Cc1cc(C)c(C2C(=O)CC(CC3CCN(C(=O)c4c(C)noc4C)C3)C2=O)c(C)c1 (stereo not shown) [Compound T148] | 60% | 70% | 50% | 100% | 40% | 80% | 30% | 70%
2 | Cc1cc(C)c(C2C(=O)CC(CC3CCN(C(=O)c4ccc(C(F)(F)F)cc4)CC3)C2=O)c(C)c1 (stereo not shown) [Compound T99] | 90% | 50% | 60% | 90% | 30% | 70% | 60% | 20%
3 | Cc1cc(C)c(C2C(=O)CC(CC3CCN(C(=O)C(C)(C)C)CC3)C2=O)c(C)c1 (stereo not shown) [Compound T79] | 70% | 60% | 90% | 80% | 20% | 60% | 60% | 60%
4 | Cc1cc(C)c(C2=C(OC(=O)C(C)(C)C)C/C(=C\C3CCSCC3)C2=O)c(C)c1 [Compound P9] | 50% | 40% | 40% | 10% | 0% | 30% | 20% | 30%
5 | Cc1cc(-c2ccc(Cl)cc2F)cc(C)c1C1C(=O)C/C(=C\C2CCOCC2)C1=O (stereo not shown) [Compound T132] | 100% | 70% | 70% | 80% | 70% | 70% | 90% | 20%
6 | Cc1cc(C)c(C2=C(O)CC(CC3CCOCC3)C2=O)c(C)c1 (stereo not shown) [Compound P67] | 100% | 100% | 100% | 100% | 90% | 100% | 90% | 80%
7 | CC(C)=CC(=O)N1CCC(CC2CC(=O)C(c3c(C)cc(C)cc3C)C2=O)CC1 (stereo not shown) [Compound T104] | 70% | 80% | 70% | 90% | 60% | 70% | 90% | 60%
8 | Cc1ccc(C(=O)N2CCC(CC3CC(=O)C(c4c(C)cc(C)cc4C)C3=O)CC2)cc1 (stereo not shown) [Compound T78] | 70% | 50% | 30% | 40% | 0% | 40% | 30% | 20%
9 | Cc1cc(C)c(C2C(=O)CC(CC3CCN(C(=O)C4CC4)C3)C2=O)c(C)c1 (stereo not shown) [Compound T141] | 60% | 70% | 80% | 90% | 80% | 80% | 80% | 80%
10 | Cc1cc(-c2ccc(F)cc2)cc(C)c1C1C(=O)CC(CC2CCOC2)C1=O (stereo not shown) [Compound T158] | 100% | 100% | 90% | 100% | 70% | 100% | 100% | 80%
11 | Cc1cc(C)c(C2C(=O)CC(CC3C[C@@H]4O[C@H]3[C@@H]3C(=O)NC(=O)[C@@H]34)C2=O)c(C)c1 (relative stereo) [Compound T127] | 20% | 20% |  | 10% |  | 20% |  | 
12 | Cc1cc(C)c(C2=C(OC(=O)c3ccccc3)C/C(=C\C3CCN(C(=O)c4ccccc4)C3)C2=O)c(C)c1 (stereo not shown) [Compound P48] | 90% | 90% | 80% | 100% | 60% | 90% | 40% | 70%
13 | CCC1(CC2CCOC2)CC(=O)C(c2c(C)cc(C)cc2C)C1=O (stereo not shown) [Compound T152] | 10% | 30% |  | 10% |  | 20% |  | 
14 | Cc1ccc(S(=O)(=O)N2CCC(CC3CC(=O)C(c4c(C)cc(C)cc4C)C3=O)CC2)cc1 (stereo not shown) [Compound T109] |  |  | 0% |  | 0% |  | 0% | 0%
15 | COC1=C(c2c(C)cc(C)cc2C)C(=O)C/C1=C\C1CCOCC1 [Compound P69] | 80% | 40% |  | 20% |  | 0% |  | 
16 | COCC1(CC2CCOC2)CC(=O)C(c2c(C)cc(C)cc2C)C1=O (stereo not shown) [Compound T153] | 10% | 20% |  | 20% |  | 10% |  | 
17 | Cc1cc(-c2ccc(C(F)(F)F)cc2)cc(C)c1C1C(=O)C/C(=C\C2CCOCC2)C1=O (stereo not shown) [Compound T133] | 90% | 0% |  | 30% |  | 20% |  | 
18 | Cc1cc(C)c(C2C(=O)CC(CC3CCNCC3)C2=O)c(C)c1 (stereo not shown) [Compound T53] |  |  | 40% |  | 0% |  | 0% | 30%
19 | Cc1cc(C)c(C2C(=O)CC(CC3CCN(C(=O)/C=C/c4ccccc4)CC3)C2=O)c(C)c1 (stereo not shown) [Compound T116] | 50% | 90% |  | 90% |  | 60% |  | 
20 | Cc1cc(C)c(C2C(=O)CC(C(O)C3CCSCC3)C2=O)c(C)c1 (stereo not shown) [Compound T6] | 10% | 10% |  | 0% |  | 20% |  | 
21 | COC1=C(c2c(C)cc(C)cc2C)C(=O)C(CC2CCOCC2)C1 (stereo not shown) [Compound P4] | 20% | 30% |  | 40% |  | 60% |  | 
22 | Cc1cc(-c2ccc(C(F)(F)F)cc2)cc(C)c1C1C(=O)CC(CC2CCOCC2)C1=O (stereo not shown) [Compound T136] | 60% | 30% |  | 70% |  | 50% |  | 
23 | Cc1cc(C)c(C2=C(OC(=O)c3ccco3)CC(CC3CCN(C(=O)c4ccco4)C3)C2=O)c(C)c1 (stereo not shown) [Compound P62] | 70% | 80% |  | 70% |  | 70% |  | 
